Test results reported in patent publication US20220127607A1, “METHODS AND MATERIALS FOR ACTIVATING AN INTERNAL RIBOSOME ENTRY SITE IN EXON 5 OF THE DMD GENE” (RESEARCH INSTITUTE AT NATIONWIDE CHILDREN'S HOSPITAL, priority 2014, published 2022).
Entries after “also recorded” stand apart in the source; their conditions may differ.

Columns and labels:
DMD exon 2 = assay: RT-PCR of exon 2 skipping in patient-derived FibroMyoD cells; assay type: cell-based, human
Excerpt: FIGS. 3A-3D. Out-of-frame exon-skipping stimulates IRES activity in patient-derived cell lines. (FIG. 3A) Schematic representation of the human DMD exon 1-10 reading frame (blue) and 5′UTR (red). Blue numbers above each exon indicate cDNA positions; red numbers at the base of each exon indicate the amino acid position. The canonical actin binding domain 1 is represented, along with the predicted (via ScanProsite) CH and ABS domains. (FIG. 3B) Schematic representation of exon 2 (SEQ ID NO: 30). The selected targeted sequences are indicated below, affecting either splice acceptor (S.A.), splice donor (S.D.), or exon splice enhancer (E.S.E.) sequences (as predicted using Human Splicing Finder or ESE finder 3.0). (FIG. 3C) Two copies each of U7-C and U7-AL were cloned into the same AAV plasmid, as they were the most efficient in skipping exon 2 (see FIGS. 10A-10B). The resulting construct is referred to as U7-ACCA. RT-PCR results after infection of U7-ACCA vector (1E11 vg) or H2A antisense oligonucleotide (AON H2A) into either wt or duplicated exon 2 FibroMyoD (FM) cells. […]
In considering skipping of exons prior to the exon 5 IRES, only the removal of exon 2 will disrupt the reading frame and result in a premature stop codon (FIG. 3A). […]

Dup2 mice [1] = assay: Central nucleation of myofibers in Dup2 mouse muscle; assay type: in vivo; details: Dup2 TA, 4 weeks post-injection; agent alone (U7-ACCA 5e11vg IM; PDN 1 mg/kg/day ip); untreated Dup2 73.0±1.6
Protocol: Expression of the IRES-driven isoform improves muscle membrane integrity and protects Dup2 muscle from contraction-induced damage. Dup2 tibialis anterior muscles were treated by intramuscular injection of 5e11vg U7-ACCA alone or with methylprednisolone (PDN: 1 mg/kg/day intraperitoneal) and analyzed at 4 weeks post-injection. […] EBD-positive fibers were quantified as a percent out of a total of 5,000 fibers counted per animal.

Dup2 mice [2] = assay: Evans blue dye (EBD) uptake / membrane protection assay; assay type: in vivo, mouse; details: Dup2 TA, 4 weeks post-injection; agent alone (U7-ACCA 5e11vg IM; PDN 1 mg/kg/day ip); untreated Dup2 14.7±6.6
Excerpt: FIGS. 4A-4F. Intramuscular delivery of U7-ACCA results in significant N-truncated dystrophin expression in Dup2 mice, restoring localization of dystrophin-associated proteins. […] In wild type BI6 animals (FIG. 4B), the wild type transcript was 14.2% and Del2 transcript was 85.8%. (FIG. 4C) RNA-Seq read depth using a tibialis anterior muscle total RNA library from Dup2 U7-ACCA treated (upper) and Dup2 untreated (lower) mice, mapped to the 5′ region of the mouse Dmd gene (mm9, chrX:80,150,000-81,050,000). […] The protein induced in BI6 males injected with U7-ACCA is of the same size as that expressed in the Dup2 treated animals, confirming the size difference between this protein and the full-length isoform. (C-terminal antibody: PA1-21011,Thermo, Inc). […]
FIGS. 6A-6E. […] EBD-positive fibers were quantified as a percent out of a total of 5,000 fibers counted per animal.
We examined whether expression of the IRES-driven isoform improved muscle integrity and physiology in the Dup2 mouse. Similar to the case in mdx mice, dystrophic changes in Dup2 mice are quantifiable at 4 weeks of age as widespread muscle regeneration characterized by centralized nuclei (Vulin et al., manuscript in press). […] Quantification of the number of EBD positive fiber confirms that expression of the IRES driven isoform results in protection of muscle fibers in these mice (FIG. 6B). […]

Dup2 mice [3] = assay: Grip strength; assay type: in vivo, mouse; details: 4 weeks, agent alone, untreated Dup2 2.22±0.26, BI6 3.36±0.37
Protocol: (§3) Dup2 tibialis anterior muscles were treated by intramuscular injection of 5e11vg U7-ACCA alone or with methylprednisolone (PDN: 1 mg/kg/day intraperitoneal) and analyzed at 4 weeks post-injection. […] EBD-positive fibers were quantified as a percent out of a total of 5,000 fibers counted per animal.
(FIG. 17C) Immunostaining of dystrophin on the same samples confirms dystrophin expression and its proper localization at the sarcolemma.

Dup2 mice [4] = assay: Muscle force following tetanic contraction; assay type: in vivo, mouse; details: Dup2 TA, 4 weeks; agent alone; untreated Dup2 170.9±14.3, BI6 274.0±12.1
Protocol: as §3

Dup2 mice [5] = assay: Loss of force following repetitive eccentric contractions; assay type: in vivo, mouse; details: Dup2 TA, 4 weeks; agent alone
dystrophin IRES [6] = details: C2C12 cells, pRDEF exon 5-6 IRES construct, increasing concentrations
Protocol: (§1) FIGS. 5A-5F. […] (FIG. 5A) Dual luciferase assay performed on lysates from C2C12 cells transfected with the pRDEF vector carrying the exon 5-6 IRES construct. […] Error bars representate s.d. […] The image intensity for the wild-type lane was lowered to allow identification of bands. MHC=myosin heavy chain (loading control). […] Immunoblot was performed on each muscle in duplicate, and the signals for both dystrophin and α-actinin from the resulting 5 lanes were quantified using ImageJ. […] The signals for both utrophin and α-actinin from the resulting 5 lanes were quantified using ImageJ.
(§2) Furthermore, treatment with the glucocorticoids prednisone and deflazacort are standard treatment for DMD. […] Because utrophin translation may be regulated by corticosteroids and overexpression can compensate for absent dystrophin, we assessed utrophin levels in the same injected muscles (FIG. 5E).

dystrophin IRES [7] = assay: Dual luciferase IRES assay in 293K cells; assay type: cell-based
Excerpt: FIGS. 12A-12B. […] Error bars represent s.d. […] N=4 animals per group. Error bars represent s.d.
as §2

utrophin = assay: Utrophin immunoblot in mouse muscle; assay type: in vivo; details: Dup2 mice, PDN 1 mg/kg/day treated versus untreated, with or without U7-ACCA
Protocol: as §1, §2

dystrophin = assay: Dystrophin immunoblot in FibroMyoD cells; assay type: cell-based, human; details: Dup2 FibroMyoD cells treated with U7-ACCA and 6.4 μM PDN

Compound | exon-skipping (RT-PCR, qualitative) (DMD exon 2; control and duplicated exon 2 patient-derived FibroMyoD, 3 days post AAV infection or AON transfection) | transcript lacking exon 2 (DMD exon 2; patient cell lines carrying mutation within exon 1 to 4, AAV 1×10E11 vector genomes) | Central nucleation (% of myofibers) (Dup2 mice [1]) | Evans blue dye (EBD)-positive fibers (Dup2 mice [2]) | Normalized maximum hindlimb grip strength (Dup2 mice [3]) | Normalized specific force following tetanic contraction (Dup2 mice [4]) | Protection from loss of force following repetitive eccentric contractions (Dup2 mice [5]) | IRES activity, concentration dependence (dystrophin IRES [6]) | glucocorticoid activation of IRES (dystrophin IRES [7]) | utrophin levels (utrophin) | dystrophin expression (dystrophin)
AON H2A: known antisense oligonucleotide CCAUUUUGUGAAUGUUUUCUUUUGAACAUC (SEQ ID NO: 13), positive control of exon 2 skipping (chemistry not given here) | lower efficiency than U7-mediated skipping | approximately 90% | – | – | – | – | – | – | – | – | –
C[C@H]1C[C@@H]2[C@H]([C@@H](O)C[C@@]3(C)[C@H]2CC[C@]3(O)C(=O)CO)[C@@]2(C)C=CC(=O)C=C12 [PDN, 6-methyl-prednisolone] | – | – | No significant difference | No significant difference | No significant difference | No significant difference | No significant difference | increases IRES activity in a dose-dependent fashion | not seen | no statistically significant difference; also recorded: does not increase expression of utrophin | An increase in dystrophin expression
